Measured values from paper PMC11345830, “Exploration of Hydrazide-Based HDAC8 PROTACs for the Treatment of Hematological Malignancies and Solid Tumors” (Journal of Medicinal Chemistry, 2024).
Read-outs that look alike come from different tables or passages of the source.

What was measured:
[1] = tested on: Jurkat cells; assay: Cell viability MTS assay, Jurkat; format: cell-based; conditions: for IC50: Homo sapiens, Jurkat, 72 h, MTS assay, read-out: IC50 antiproliferative, Jurkat
Method: (§1) MTS assay was used to measure the cell viability. For single treatment, Jurkat, THP-1 and HEL (8000 cells/well), HCT116 and A549 (2000 cells/well) were seeded in 96-well plates in 100 μL complete medium. After overnight incubation, 50 μL of media containing various concentrations of compounds or the vehicle were added to each well. For cotreatment, cells were seeded in 96-well plates in 50 μL complete medium. After overnight incubation, 50 μL of Z-VAD-FMK, Nec-1, Fer-1, CQ, and other indicated compounds were added to each well. One hour later, 50 μL of media containing various concentrations of compounds were added to each well. After 72 h of treatment, 20 μL of CellTiter 96 AQueous One Solution reagent (Promega, Madison, USA) was added to each well according to manufacturer’s protocol. Plates were incubated at 37 °C for 1–2 h. The absorbance was determined at a wavelength of 490 nm using a Synergy H1 plate reader (Biotek, Winooski, VT, USA).

[2] = tested on: HCT116 cells; assay: Cell viability MTS assay, HCT116; format: cell-based; conditions: Homo sapiens, HCT-116, 72 h, read-out: IC50 antiproliferative, HCT116
Method: as §1

[3] = tested on: THP-1 cells; assay: Cell viability MTS assay, THP-1; format: cell-based; conditions: Homo sapiens, 72 h, read-out: IC50 antiproliferative, THP-1
Method: as §1

[4] = target: T1, HDAC8 (Homo sapiens, UniProt Q9BY41); assay: In vitro HDAC8 deacetylase inhibition assay
T1 sequence (Q9BY41 1-377): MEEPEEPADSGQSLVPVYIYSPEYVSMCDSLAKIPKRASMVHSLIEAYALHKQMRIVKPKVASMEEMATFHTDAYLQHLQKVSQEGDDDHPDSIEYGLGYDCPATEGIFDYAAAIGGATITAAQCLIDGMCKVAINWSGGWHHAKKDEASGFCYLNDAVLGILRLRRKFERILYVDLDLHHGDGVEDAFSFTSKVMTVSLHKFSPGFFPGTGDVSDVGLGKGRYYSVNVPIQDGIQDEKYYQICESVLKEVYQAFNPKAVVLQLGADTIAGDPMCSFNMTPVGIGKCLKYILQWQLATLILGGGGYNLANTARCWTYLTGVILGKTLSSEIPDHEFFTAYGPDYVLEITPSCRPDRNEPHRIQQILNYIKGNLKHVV
Method: After a following incubation at 37 °C for 20 min, the fluorescence was measured on a Synergy H1 Platereader (BioTek, USA) with an excitation wavelength of 370 nm and an emission wavelength of 460 nm. Nonlinear regression was used for the determination of the IC50 of each compound.

[5] = tested on: A549 cells; assay: Cell viability MTS assay, A549; format: cell-based; conditions: Homo sapiens, 72 h, read-out: IC50 antiproliferative, A549
Method: as §1

[6] = target: T1, HDAC8; assay: HDAC8 degradation in Jurkat cells, Western blot; conditions: for inhibition at 0.1 µM / Dmax: Jurkat; for inhibition at 0.1 µM: read-out: Degradation (%) at 100 nM (HDAC8); for Dmax: read-out: Dmax (HDAC8 degradation); for DC50: read-out: DC50 (HDAC8 degradation)
[7] = target: T1, HDAC8; design: endogenous in cells; host or cells: HCT116; method as in PMID 35759908; conditions: HCT116 cells; cited from earlier work

CCCCCCNNC(=O)c1ccc(CNC(=O)CN2CCC(c3ccc(NC(C)=O)cc3)CC2)cc1 [Compound 32, 2-(4-(4-Acetamidophenyl)piperidin-1-yl)-N-(4-(2-hexylhydrazine-1-carbonyl)benzyl)acetamide]
IC50 [1]: 3 ± 0.3 µM | IC50 [2]: 2.8 ± 0.3 µM | IC50 [3]: 3.4 ± 0.6 µM | IC50 [4]: 16.6 ± 2.8 µM | IC50 [5]: 12 ± 1.6 µM | HDAC8 degradation by control compounds (in words) ([6]; Jurkat cells, 6 h): Neither NC-Z16 nor 32 induced HDAC8 degradation

COc1ccc(Cn2ccc3ccc(C(=O)NO)cc32)cc1 [PCI-34051]
IC50 [1]: 4.5 ± 0.7 µM | decreased antiproliferative potency after Z16 pretreatment compared to single treatment ([1]; Jurkat pretreated with 50 nM Z16 for 2 h, then 72 h, MTS): about 5 fold | IC50 [2]: 21.9 ± 2.8 µM | IC50 [3]: > 33.3 µM | IC50 [5]: > 33.3 µM

O=C(CCCCOc1cccc(CCNC(=O)c2cccc(C(=O)NO)c2)c1)NCCCCCCNc1cccc2c1C(=O)N(C1CCC(=O)NC1=O)C2=O (stereo not drawn) [PROTAC 2]
DC50 [7]: 0.147 µM

Nc1cccc2c1C(=O)N(C1CCC(=O)NC1=O)C2=O (stereo not drawn) [Poma, pomalidomide]
IC50 [1]: > 33.3 µM | IC50 [2]: > 33.3 µM | IC50 [3]: > 33.3 µM | IC50 [5]: > 33.3 µM

CCCCCCNNC(=O)c1ccc(CNC(=O)CCCNc2cccc3c2C(=O)N(C2CCC(=O)NC2=O)C3=O)cc1 (stereo not drawn) [Z1, 4-((2-(2,6-Dioxopiperidin-3-yl)-1,3-dioxoisoindolin-4-yl)amino)-N-(4-(2-hexylhydrazine-1-carbonyl)benzyl)butanamide]
inhibition at 0.1 µM ([6]; 6 h): 73 ± 1%

CCCCCCNNC(=O)c1ccc(CNC(=O)CCCCNc2cccc3c2C(=O)N(C2CCC(=O)NC2=O)C3=O)cc1 (stereo not drawn) [Z2, 5-((2-(2,6-Dioxopiperidin-3-yl)-1,3-dioxoisoindolin-4-yl)amino)-N-(4-(2-hexylhydrazine-1-carbonyl)benzyl)pentanamide]
inhibition at 0.1 µM ([6]; 6 h): 62 ± 2%

CCCCCCNNC(=O)c1ccc(CNC(=O)CCCCCNc2cccc3c2C(=O)N(C2CCC(=O)NC2=O)C3=O)cc1 (stereo not drawn) [Z3, 6-((2-(2,6-Dioxopiperidin-3-yl)-1,3-dioxoisoindolin-4-yl)amino)-N-(4-(2-hexylhydrazine-1-carbonyl)benzyl)hexanamide]
inhibition at 0.1 µM ([6]; 6 h): 44 ± 13%

CCCCCCNNC(=O)c1ccc(CNC(=O)CCCCCCNc2cccc3c2C(=O)N(C2CCC(=O)NC2=O)C3=O)cc1 (stereo not drawn) [Z4, 7-((2-(2,6-Dioxopiperidin-3-yl)-1,3-dioxoisoindolin-4-yl)amino)-N-(4-(2-hexylhydrazine-1-carbonyl)benzyl)heptanamide]
inhibition at 0.1 µM ([6]; 6 h): 90 ± 10% | Dmax [6]: 88% | DC50 ([6]; Jurkat cells, 6 h): 0.0167 µM

CCCCCCNNC(=O)c1ccc(CNC(=O)CCCCCCCNc2cccc3c2C(=O)N(C2CCC(=O)NC2=O)C3=O)cc1 (stereo not drawn) [Z5, 8-((2-(2,6-Dioxopiperidin-3-yl)-1,3-dioxoisoindolin-4-yl)amino)-N-(4-(2-Hexylhydrazine-1-carbonyl)benzyl)octanamide]
inhibition at 0.1 µM ([6]; 6 h): 43 ± 17%

CCCCCCNNC(=O)c1ccc(CNC(=O)CCCCCCCCCNc2cccc3c2C(=O)N(C2CCC(=O)NC2=O)C3=O)cc1 (stereo not drawn) [Z6, 10-((2-(2,6-Dioxopiperidin-3-yl)-1,3-dioxoisoindolin-4-yl)amino)-N-(4-(2-hexylhydrazine-1-carbonyl)benzyl)decanamide]
inhibition at 0.1 µM ([6]; 6 h): 43 ± 3%

CCCCCCNNC(=O)c1ccc(CNC(=O)CCCCCCCCCCCNc2cccc3c2C(=O)N(C2CCC(=O)NC2=O)C3=O)cc1 (stereo not drawn) [Z7, 12-((2-(2,6-Dioxopiperidin-3-yl)-1,3-dioxoisoindolin-4-yl)amino)-N-(4-(2-Hexylhydrazine-1-carbonyl)benzyl)dodecanamide]
Degradation (%) at 100 nM (HDAC8) ([6]; Jurkat cells, 100 nM, 6 h, Western blot, n.d = no degradation): did not trigger visible degradation

CCCCCCNNC(=O)c1ccc(CNC(=O)CCC(=O)N[C@H](C(=O)N2C[C@H](O)C[C@H]2C(=O)NCc2ccc(-c3scnc3C)cc2)C(C)(C)C)cc1 [Z8, N^1-(4-(2-Hexylhydrazine-1-carbonyl)benzyl)-N^4-((S)-1-((2S,4R)-4-hydroxy-2-((4-(4-methylthiazol-5-yl)benzyl)carbamoyl)pyrrolidin-1-yl)-3,3-dimethyl-1-oxobutan-2-yl)succinimide]
inhibition at 0.1 µM ([6]; 6 h): 20 ± 1%

CCCCCCNNC(=O)c1ccc(CNC(=O)CCCCC(=O)N[C@H](C(=O)N2C[C@H](O)C[C@H]2C(=O)NCc2ccc(-c3scnc3C)cc2)C(C)(C)C)cc1 [Z9, N^1-(4-(2-Hexylhydrazine-1-carbonyl)benzyl)-N^6-((S)-1-((2S,4R)-4-hydroxy-2-((4-(4-methylthiazol-5-yl)benzyl)carbamoyl)pyrrolidin-1-yl)-3,3-dimethyl-1-oxobutan-2-yl)adipamide]
inhibition at 0.1 µM ([6]; 6 h): 17 ± 8%

CCCCCCNNC(=O)c1ccc(CNC(=O)CCCCCCC(=O)N[C@H](C(=O)N2C[C@H](O)C[C@H]2C(=O)NCc2ccc(-c3scnc3C)cc2)C(C)(C)C)cc1 [Z10, N^1-(4-(2-Hexylhydrazine-1-carbonyl)benzyl)-N^8-((S)-1-((2S,4R)-4-hydroxy-2-((4-(4-methylthiazol-5-yl)benzyl)carbamoyl)pyrrolidin-1-yl)-3,3-dimethyl-1-oxobutan-2-yl)octanediamide]
inhibition at 0.1 µM ([6]; 6 h): 14 ± 5%

CCCCCCNNC(=O)c1ccc(CNC(=O)CCCCCCCC(=O)N[C@H](C(=O)N2C[C@H](O)C[C@H]2C(=O)NCc2ccc(-c3scnc3C)cc2)C(C)(C)C)cc1 [Z11, N^1-(4-(2-Hexylhydrazine-1-carbonyl)benzyl)-N^9-((S)-1-((2S,4R)-4-hydroxy-2-((4-(4-methylthiazol-5-yl)benzyl)carbamoyl)pyrrolidin-1-yl)-3,3-dimethyl-1-oxobutan-2-yl)nonanediamide]
inhibition at 0.1 µM ([6]; 6 h): 48 ± 4%

CCCCCCNNC(=O)c1ccc(CNC(=O)CCCCCCCCC(=O)N[C@H](C(=O)N2C[C@H](O)C[C@H]2C(=O)NCc2ccc(-c3scnc3C)cc2)C(C)(C)C)cc1 [Z12, N^1-(4-(2-Hexylhydrazine-1-carbonyl)benzyl)-N^10-((S)-1-((2S,4R)-4-hydroxy-2-((4-(4-methylthiazol-5-yl)benzyl)carbamoyl)pyrrolidin-1-yl)-3,3-dimethyl-1-oxobutan-2-yl)decanediamide]
inhibition at 0.1 µM ([6]; 6 h): 83 ± 2% | Dmax [6]: 93% | DC50 ([6]; Jurkat cells, 6 h): 0.0621 µM

CCCCCCNNC(=O)c1ccc(CNC(=O)CCCCCCCCCCC(=O)N[C@H](C(=O)N2C[C@H](O)C[C@H]2C(=O)NCc2ccc(-c3scnc3C)cc2)C(C)(C)C)cc1 [Z13, N^1-(4-(2-Hexylhydrazine-1-carbonyl)benzyl)-N^12-((S)-1-((2S,4R)-4-hydroxy-2-((4-(4-methylthiazol-5-yl)benzyl)carbamoyl)pyrrolidin-1-yl)-3,3-dimethyl-1-oxobutan-2-yl)dodecanediamide]
inhibition at 0.1 µM ([6]; 6 h): 65 ± 5%

CCCCCCNNC(=O)c1ccc(CNC(=O)C2CCN(c3ccc4c(c3)C(=O)N(C3CCC(=O)NC3=O)C4=O)CC2)cc1 (stereo not drawn) [Z14, 1-(2-(2,6-Dioxopiperidin-3-yl)-1,3-dioxoisoindolin-5-yl)-N-(4-(2-hexylhydrazine-1-carbonyl)benzyl)piperidine-4-carboxamide]
inhibition at 0.1 µM ([6]; 6 h): 34 ± 3%

CCCCCCNNC(=O)c1ccc(CNCC2CCN(c3ccc4c(c3)C(=O)N(C3CCC(=O)NC3=O)C4=O)CC2)cc1 (stereo not drawn) [Z15, 4-((((1-(2-(2,6-Dioxopiperidin-3-yl)-1,3-dioxoisoindolin-5-yl)piperidin-4-yl)methyl)amino)methyl)-N′-hexylbenzohydrazide]
inhibition at 0.1 µM ([6]; 6 h): 25 ± 2%

CCCCCCNNC(=O)c1cccc(NCc2ccc(C(=O)N3CCC(c4ccc(NC5CCC(=O)NC5=O)cc4)CC3)cc2)c1 (stereo not drawn) [Z18, 3-((4-(4-(4-((2,6-Dioxopiperidin-3-yl)amino)phenyl)piperidine-1-carbonyl)benzyl)amino)-N′-hexylbenzohydrazide]
inhibition at 0.1 µM ([6]; 6 h): 13 ± 4%
